In ChEMBL document CHEMBL2150935, “Synthesis, biological evaluation and chemometric analysis of indazole derivatives. 1,2-Disubstituted 5-nitroindazolinones, new prototypes of antichagasic drug” (Eur J Med Chem, 2012):

Columns and labels:
Trypanosoma cruzi [1] = test: Growth inhibition of epimastigote form of Trypanosoma cruzi CL-B5 at 64 uM after 72 hrs by lacZ reporter gene assay; format: functional; settings: CL-B5, 72 h, read-out: GI
Trypanosoma cruzi [2] = test: Growth inhibition of epimastigote form of Trypanosoma cruzi CL-B5 at 256 uM after 72 hrs by lacZ reporter gene assay; format: functional; settings: CL-B5, 72 h, read-out: GI
[3] = Growth inhibition of mouse J774 cells at 64 uM after 24 hrs by resazurin reduction assay; format: cell-based; settings: read-out: GI
[4] = Growth inhibition of mouse J774 cells at 256 uM after 24 hrs by resazurin reduction assay; format: cell-based; settings: read-out: GI
[5] = Growth inhibition of mouse J774 cells at 128 uM after 24 hrs by resazurin reduction assay; format: cell-based; settings: read-out: GI
Trypanosoma cruzi [6] = test: Growth inhibition of epimastigote form of Trypanosoma cruzi CL-B5 at 128 uM after 72 hrs by lacZ reporter gene assay; format: functional; settings: CL-B5, 72 h, read-out: GI
Trypanosoma cruzi [7] = test: Growth inhibition of epimastigote form of Trypanosoma cruzi CL-B5 after 72 hrs by lacZ reporter gene assay; format: functional, organism-based; settings: CL-B5, 72 h

| Compound | inhibition of growth at 64 µM (Trypanosoma cruzi [1]) | inhibition of growth at 256 µM (Trypanosoma cruzi [2]) | inhibition at 24 h, 64 µM [3] | inhibition at 24 h, 256 µM [4] | inhibition at 24 h, 128 µM [5] | inhibition of growth at 128 µM (Trypanosoma cruzi [6]) | IC50 (Trypanosoma cruzi [7]) |
| --- | --- | --- | --- | --- | --- | --- | --- |
| CCCn1c2ccc([N+](=O)[O-])cc2c(=O)n1Cc1ccc2ccccc2c1 | 78% | 41.9% | 0% | 15.5% | 11.9% | 70.4% | – |
| CCCOc1c2cc([N+](=O)[O-])ccc2nn1C | 27.4% | 91.2% | 0% | 62.4% | 35.3% | 16.9% | – |
| Cn1c2ccc([N+](=O)[O-])cc2c(=O)n1CCc1ccccc1 | 49.6% | 23.4% | 0% | 0% | 0% | 29.1% | – |
| O=[N+]([O-])c1ccc2nn(Cc3ccccc3)c(OCc3ccccc3)c2c1 | 51.8% | 34.5% | – | 64.7% | 15.2% | 43.5% | – |
| CC(C)n1c2ccc([N+](=O)[O-])cc2c(=O)n1-c1ccccc1 | 28.3% | 84% | 0% | 16.8% | 0% | 54.7% | – |
| CCCCOc1c2cc([N+](=O)[O-])ccc2nn1Cc1ccccc1 | 24.6% | 54.7% | – | 26.3% | – | 48.5% | – |
| Cn1nc(OCCc2ccccc2)c2cc([N+](=O)[O-])ccc21 | 67% | 49.4% | 0% | 0% | 2.99% | 40.6% | – |
| COc1c2cc([N+](=O)[O-])ccc2nn1Cc1ccccc1 | 48.3% | 21.2% | 0% | 6.83% | 0% | 38.1% | – |
| CCCOc1c2cc([N+](=O)[O-])ccc2nn1Cc1ccc2ccccc2c1 | 61.2% | 22.5% | 22.4% | 0% | 28.5% | 16.4% | – |
| COc1c2cc([N+](=O)[O-])ccc2nn1-c1ccccc1 | 0% | 2.81% | – | – | – | 0% | – |
| Cn1c2ccc([N+](=O)[O-])cc2c(=O)n1Cc1ccc2ccccc2c1 | 42.5% | 37.7% | 0% | 0% | 0% | 40.9% | – |
| CC(C)Oc1c2cc([N+](=O)[O-])ccc2nn1Cc1ccccc1 | 56.2% | 70.8% | – | 41.4% | – | 67.1% | – |
| CC(C)Oc1c2cc([N+](=O)[O-])ccc2nn1Cc1ccc2ccccc2c1 | 76.5% | 63.7% | 26.5% | – | – | 76.6% | – |
| CC1CS(=O)(=O)CCN1/N=C/c1ccc([N+](=O)[O-])o1 (stereo not given) [NIFURTIMOX] | 91.6% | 100% | 0% | 25% | 5% | 97.1% | 3.61 µM |
| COc1nn(-c2ccccc2)c2ccc([N+](=O)[O-])cc12 | 21.4% | 56.3% | – | 27.1% | – | 40.3% | – |
| CC(C)n1c2ccc([N+](=O)[O-])cc2c(=O)n1C | 7.45% | 13.2% | 0% | 0% | 0% | 10.5% | – |
| CC(C)Oc1c2cc([N+](=O)[O-])ccc2nn1-c1ccccc1 | 20.7% | 6.26% | – | – | – | 11.3% | – |
| COc1c2cc([N+](=O)[O-])ccc2nn1C | 67.8% | 78.7% | 0% | 21.6% | 6.57% | 79.2% | – |

| Compound | inhibition of growth at 64 µM (Trypanosoma cruzi [1]) | inhibition of growth at 256 µM (Trypanosoma cruzi [2]) | inhibition at 24 h, 64 µM [3] | inhibition at 24 h, 256 µM [4] | inhibition at 24 h, 128 µM [5] | inhibition of growth at 128 µM (Trypanosoma cruzi [6]) | IC50 (Trypanosoma cruzi [7]) |
| --- | --- | --- | --- | --- | --- | --- | --- |
| Cn1c(=O)c2cc([N+](=O)[O-])ccc2n1C | 42.7% | 68% | 11.4% | 0% | 0% | 42.8% | – |
| Cn1c(=O)c2cc([N+](=O)[O-])ccc2n1Cc1ccccc1 | 39.8% | 80.6% | 0.55% | 6.33% | 6.91% | 70.3% | – |
| CC(C)Oc1c2cc([N+](=O)[O-])ccc2nn1C | 71.5% | 71.9% | 6.34% | 20% | 19.2% | 70.5% | – |
| O=c1c2cc([N+](=O)[O-])ccc2n(Cc2ccccc2)n1Cc1ccccc1 | 74.5% | 69.2% | 9.77% | 57.9% | 64% | 83.7% | – |
| Cn1c2ccccc2c(=O)n1Cc1ccccc1 | 28% | 55.8% | – | – | – | 36.6% | – |
| CCCn1c2ccc([N+](=O)[O-])cc2c(=O)n1-c1ccccc1 | 71.8% | 86.1% | 0% | 0% | 0% | 76.5% | – |
| CCCn1c2ccc([N+](=O)[O-])cc2c(=O)n1C | 3.05% | 11.6% | 0% | 0% | 0% | 7.92% | – |
| Cn1c2ccc([N+](=O)[O-])cc2c(=O)n1-c1ccccc1 | 81.8% | 89.1% | 0% | 20.7% | 9.95% | 84.3% | – |
| CCCOc1c2cc([N+](=O)[O-])ccc2nn1Cc1ccccc1 | 15.7% | 0% | 0% | 0% | 0% | 26.1% | – |
| Cn1nc2ccc([N+](=O)[O-])cc2c1OCc1ccccc1 | 36.7% | 65.5% | 21.5% | 0% | 1.39% | 56.1% | – |
| O=C(Cn1ccnc1[N+](=O)[O-])NCc1ccccc1 [BENZNIDAZOLE] | 71% | 82% | 13% | 13% | 14.8% | 79.8% | 27.3 µM |
| CCCCCn1c2ccc([N+](=O)[O-])cc2c(=O)n1Cc1ccccc1 | 85.2% | 90.2% | 54.1% | 81% | 71.8% | 90% | – |
| CC(C)n1c2ccc([N+](=O)[O-])cc2c(=O)n1Cc1ccc2ccccc2c1 | 10.7% | 24.2% | 0% | 0% | 0% | 13% | – |
| CCCCCOc1c2cc([N+](=O)[O-])ccc2nn1Cc1ccccc1 | 53.4% | 79.3% | 0% | 0% | 0% | 78.8% | – |
| Cn1c2ccc([N+](=O)[O-])cc2c(=O)n1Cc1ccccc1 | 83.3% | 91.7% | 15.2% | 0% | 29% | 86% | – |
| Cn1nc(OCc2ccc3ccccc3c2)c2cc([N+](=O)[O-])ccc21 | 46.4% | 11.3% | 13.3% | – | 9% | 23.6% | – |
| Cn1c(=O)c2cc([N+](=O)[O-])ccc2n1-c1ccccc1 | 14.2% | 26.6% | – | 43.1% | – | 19.4% | – |
| COc1c2cc([N+](=O)[O-])ccc2nn1Cc1ccc2ccccc2c1 | 27% | 72.5% | – | 9.31% | – | 35.6% | – |
